Measurements taken from patent publication US10906897B2, “Microbiocidal heterobicyclic derivatives” (priority 2015, dated 2021).

Experiments:
[1] = test system: Magnaporthe grisea (Pyricularia oryzae); experiment: whole plant or invertebrate; assay type: in vivo; conditions: foliar, read-out: control of Magnaporthe grisea
Sclerotinia sclerotiorum = Sclerotinia sclerotiorum / liquid culture (cottony rot); conditions: read-out: control of Sclerotinia sclerotiorum
Protocol: Sclerotinia sclerotiorum/Liquid Culture (Cottony Rot)
Mycelia fragments of a newly grown liquid culture of the fungus are directly mixed into 5 nutrient broth (Vogels broth). After placing a (DMSO) solution of test compound into a microtiter plate (96-well format) the nutrient broth containing the fungal material is added. The test plates are incubated at 24° C. and the inhibition of growth is determined photometrically 3-4 days after application.

[2] = test system: Glomerella lagenarium (Colletotrichum lagenarium); experiment: Glomerella lagenarium (Colletotrichum lagenarium) / liquid culture (Anthracnose); assay type: cell-based; conditions: Colletotrichum orbiculare, growth inhibition photometrically 3-4 days after application, compared to untreated control
[3] = test system: Monographella nivalis (Microdochium nivale); experiment: Monographella nivalis (Microdochium nivale) / liquid culture (foot rot cereals); assay type: cell-based; conditions: 96 h, growth inhibition photometrically 4-5 days after application, compared to untreated control
[4] = test system: Magnaporthe grisea (Pyricularia oryzae); experiment: microbe, parasite or virus in culture; assay type: cell-based; conditions: read-out: control of Magnaporthe grisea
Fusarium culmorum = experiment: microbe, parasite or virus in culture; assay type: cell-based; conditions: read-out: control of Fusarium culmorum
[5] = test system: Botryotinia fuckeliana (Botrytis cinerea); experiment: Botryotinia fuckeliana (Botrytis cinerea) / liquid culture (Gray mould); assay type: cell-based; conditions: growth inhibition photometrically 3-4 days after application, compared to untreated control
[6] = test system: Mycosphaerella graminicola (Septoria tritici); experiment: Mycosphaerella graminicola (Septoria tritici) / liquid culture (Septoria blotch); assay type: cell-based; conditions: Zymoseptoria tritici, growth inhibition photometrically 4-5 days after application, compared to untreated control
Gaeumannomyces graminis = Gaeumannomyces graminis / liquid culture (Take-all of cereals); assay type: cell-based; conditions: growth inhibition photometrically 4-5 days after application, compared to untreated control

| Compound | pest or weed control at 200 ppm [1] [%] | inhibition of growth at 20 ppm (Sclerotinia sclerotiorum) [%] | inhibition of growth at 20 ppm [2] [%] | inhibition of growth at 20 ppm [3] [%] | inhibition of growth at 60 ppm [4] [%] | melting point [°C] | inhibition of growth at 20 ppm (Fusarium culmorum) [%] | inhibition of growth at 20 ppm [5] [%] | inhibition of growth at 20 ppm [6] [%] | inhibition of growth at 20 ppm (Gaeumannomyces graminis) [%] |
| --- | --- | --- | --- | --- | --- | --- | --- | --- | --- | --- |
| Cc1ccn2c(C3=NC(C)(C)C(F)(F)c4ccccc43)cnc2c1C [Compound E-57, 1-(7,8-dimethylimidazo[1,2-a]pyridin-3-yl)-4,4-difluoro-3,3-dimethyl-isoquinoline] | ≥ 50 | ≥ 80 | ≥ 80 | ≥ 80 | ≥ 80 | 159 to 161 | ≥ 80 | ≥ 80 | – | – |
| CC1(C)N=C(c2cnc3cc(I)ccn23)c2cccc(F)c2C1(C)C [Compound E-44, 5-fluoro-1-(7-iodoimidazo[1,2-a]pyridin-3-yl)-3,3,4,4-tetramethyl-isoquinoline] | – | – | ≥ 80 | ≥ 80 | – | – | ≥ 80 | ≥ 80 | ≥ 80 | – |
| CC1(C)N=C(c2cnc3c(C4CC4)cccn23)c2cccc(F)c2C1(C)C [Compound E-22, 1-(8-cyclopropylimidazo[1,2-a]pyridin-3-yl)-5-fluoro-3,3,4,4-tetramethyl-isoquinoline] | – | – | ≥ 80 | ≥ 80 | – | – | – | ≥ 80 | ≥ 80 | – |
| Cc1c(Br)ccc2c(C3=NC(C)(C)C(F)(F)c4ccccc43)cnn12 [Compound E-79, 1-(6-bromo-7-methyl-pyrazolo[1,5-a]pyridin-3-yl)-4,4-difluoro-3,3-dimethyl-isoquinoline] | – | ≥ 80 | ≥ 80 | – | ≥ 80 | 180 to 182 | ≥ 80 | ≥ 80 | – | ≥ 80 |
| CC1(C)N=C(c2cnn3c(Cl)cccc23)c2ccccc2C1(F)F [Compound E-93, 1-(7-chloropyrazolo[1,5-a]pyridin-3-yl)-4,4-difluoro-3,3-dimethyl-isoquinoline] | ≥ 50 | ≥ 80 | ≥ 80 | ≥ 80 | ≥ 80 | 129 to 132 | ≥ 80 | ≥ 80 | ≥ 80 | – |
| Cc1ccc2c(C3=NC(C)(C)C(=O)c4ccccc43)cnn2c1C [Compound E-64, 1-(6,7-dimethylpyrazolo[1,5-a]pyridin-3-yl)-3,3-dimethyl-isoquinolin-4-one] | – | ≥ 80 | ≥ 80 | ≥ 80 | ≥ 80 | 152 to 153 | ≥ 80 | ≥ 80 | – | ≥ 80 |
| Cc1ccc2c(C3=NC(C)(C)C(=O)c4c(F)cccc43)cnn2c1C [Compound E-72, 1-(6,7-dimethylpyrazolo[1,5-a]pyridin-3-yl)-5-fluoro-3,3-dimethyl-isoquinolin-4-one] | – | ≥ 80 | ≥ 80 | ≥ 80 | ≥ 80 | 139 to 141 | ≥ 80 | ≥ 80 | – | – |
| Cc1ccc2c(C3=NC(C)(C)C(F)(F)c4cc(F)ccc43)cnn2c1C [Compound E-70, 1-(6,7-dimethylpyrazolo[1,5-a]pyridin-3-yl)-4,4,6-trifluoro-3,3-dimethyl-isoquinoline] | ≥ 50 | ≥ 80 | ≥ 80 | ≥ 80 | ≥ 80 | – | ≥ 80 | ≥ 80 | – | – |
| Cc1c(Cl)ccc2c(C3=NC(C)(C)C(F)(F)c4ccccc43)cnn12 [Compound E-91, 1-(6-chloro-7-methyl-pyrazolo[1,5-a]pyridin-3-yl)-4,4-difluoro-3,3-dimethyl-isoquinoline] | ≥ 50 | ≥ 80 | ≥ 80 | ≥ 80 | ≥ 80 | 166 to 168 | ≥ 80 | ≥ 80 | – | ≥ 80 |
| Cc1cccc2c(C3=NC(C)(C)C(=O)c4ccccc43)cnn12 [Compound E-67, 3,3-dimethyl-1-(7-methylpyrazolo[1,5-a]pyridin-3-yl)isoquinolin-4-one] | – | ≥ 80 | ≥ 80 | ≥ 80 | ≥ 80 | 110 to 112 | ≥ 80 | ≥ 80 | – | – |
| Cc1cccc2c(C3=NC(C)(C)C(F)(F)c4ccccc43)cnn12 [Compound E-66, 4,4-difluoro-3,3-dimethyl-1-(7-methylpyrazolo[1,5-a]pyridin-3-yl)isoquinoline] | ≥ 50 | ≥ 80 | ≥ 80 | ≥ 80 | ≥ 80 | – | ≥ 80 | ≥ 80 | – | ≥ 80 |
| CC1(C)N=C(c2cnn3cc(Br)ccc23)c2ccccc2C1=O [Compound E-82, 1-(6-bromopyrazolo[1,5-a]pyridin-3-yl)-3,3-dimethyl-isoquinolin-4-one] | – | ≥ 80 | ≥ 80 | ≥ 80 | ≥ 80 | 147 to 149 | ≥ 80 | ≥ 80 | ≥ 80 | ≥ 80 |
| CC1(C)N=C(c2cnn3ccccc23)c2ccccc2C1(F)F [Compound E-80, 4,4-difluoro-3,3-dimethyl-1-pyrazolo[1,5-a]pyridin-3-yl-isoquinoline] | – | ≥ 80 | ≥ 80 | ≥ 80 | ≥ 80 | 78 to 82 | ≥ 80 | ≥ 80 | ≥ 80 | ≥ 80 |
| Cc1ccc2c(C3=NC(C)(C)C(F)(F)c4c(F)cccc43)cnn2c1C [Compound E-71, 1-(6,7-dimethylpyrazolo[1,5-a]pyridin-3-yl)-4,4,5-trifluoro-3,3-dimethyl-isoquinoline] | ≥ 50 | ≥ 80 | ≥ 80 | ≥ 80 | ≥ 80 | – | ≥ 80 | ≥ 80 | – | ≥ 80 |
| Cc1cccn2ncc(C3=NC(C)(C)C(F)(F)c4ccccc43)c12 [Compound E-69, 4,4-difluoro-3,3-dimethyl-1-(4-methylpyrazolo[1,5-a]pyridin-3-yl)isoquinoline] | ≥ 50 | ≥ 80 | ≥ 80 | ≥ 80 | ≥ 80 | 113 to 114 | ≥ 80 | ≥ 80 | – | ≥ 80 |
| Cc1ccc2c(C3=NC(C)(C)C(F)(F)c4ccccc43)cnn2c1C [Compound E-65, 1-(6,7-dimethylpyrazolo[1,5-a]pyridin-3-yl)-4,4-difluoro-3,3-dimethyl-isoquinoline] | – | ≥ 80 | ≥ 80 | ≥ 80 | ≥ 80 | – | ≥ 80 | ≥ 80 | – | ≥ 80 |
| CC1(C)N=C(c2cnn3cccc(F)c23)c2ccccc2C1(F)F [Compound E-89, 4,4-difluoro-1-(4-fluoropyrazolo[1,5-a]pyridin-3-yl)-3,3-dimethyl-isoquinoline] | – | ≥ 80 | ≥ 80 | ≥ 80 | ≥ 80 | – | ≥ 80 | ≥ 80 | – | – |
| Cc1cccn2c(C3=NC4(CCC4)Cc4ccccc43)cnc12 [Compound E-52, 1-(8-methylimidazo[1,2-a]pyridin-3-yl)spiro[4H-isoquinoline-3,1′-cyclobutane]] | – | ≥ 80 | ≥ 80 | ≥ 80 | ≥ 80 | – | – | ≥ 80 | – | – |
| Cc1cccn2c(C3=NC(C)(C)C(F)(F)c4c(F)cccc43)cnc12 [Compound E-39, 4,4,5-trifluoro-3,3-dimethyl-1-(8-methylimidazo[1,2-a]pyridin-3-yl)isoquinoline] | ≥ 50 | – | ≥ 80 | ≥ 80 | – | – | ≥ 80 | ≥ 80 | ≥ 80 | ≥ 80 |
